Results published in publication PMC4685012 (Bioorganic & medicinal chemistry, 2015).

Legend:
HDAC1/2 = details: read-out: HDAC1/2 IC50; cited from earlier work
HDAC6 = molecular target: T1, HDAC6 (Homo sapiens, UniProt Q9UBN7); assay: HDAC6 inhibition, label-free mass spectrometry-based SAMDI assay; type: biochemical; details: vs 26e as printed
T1 sequence (Q9UBN7 1-1215): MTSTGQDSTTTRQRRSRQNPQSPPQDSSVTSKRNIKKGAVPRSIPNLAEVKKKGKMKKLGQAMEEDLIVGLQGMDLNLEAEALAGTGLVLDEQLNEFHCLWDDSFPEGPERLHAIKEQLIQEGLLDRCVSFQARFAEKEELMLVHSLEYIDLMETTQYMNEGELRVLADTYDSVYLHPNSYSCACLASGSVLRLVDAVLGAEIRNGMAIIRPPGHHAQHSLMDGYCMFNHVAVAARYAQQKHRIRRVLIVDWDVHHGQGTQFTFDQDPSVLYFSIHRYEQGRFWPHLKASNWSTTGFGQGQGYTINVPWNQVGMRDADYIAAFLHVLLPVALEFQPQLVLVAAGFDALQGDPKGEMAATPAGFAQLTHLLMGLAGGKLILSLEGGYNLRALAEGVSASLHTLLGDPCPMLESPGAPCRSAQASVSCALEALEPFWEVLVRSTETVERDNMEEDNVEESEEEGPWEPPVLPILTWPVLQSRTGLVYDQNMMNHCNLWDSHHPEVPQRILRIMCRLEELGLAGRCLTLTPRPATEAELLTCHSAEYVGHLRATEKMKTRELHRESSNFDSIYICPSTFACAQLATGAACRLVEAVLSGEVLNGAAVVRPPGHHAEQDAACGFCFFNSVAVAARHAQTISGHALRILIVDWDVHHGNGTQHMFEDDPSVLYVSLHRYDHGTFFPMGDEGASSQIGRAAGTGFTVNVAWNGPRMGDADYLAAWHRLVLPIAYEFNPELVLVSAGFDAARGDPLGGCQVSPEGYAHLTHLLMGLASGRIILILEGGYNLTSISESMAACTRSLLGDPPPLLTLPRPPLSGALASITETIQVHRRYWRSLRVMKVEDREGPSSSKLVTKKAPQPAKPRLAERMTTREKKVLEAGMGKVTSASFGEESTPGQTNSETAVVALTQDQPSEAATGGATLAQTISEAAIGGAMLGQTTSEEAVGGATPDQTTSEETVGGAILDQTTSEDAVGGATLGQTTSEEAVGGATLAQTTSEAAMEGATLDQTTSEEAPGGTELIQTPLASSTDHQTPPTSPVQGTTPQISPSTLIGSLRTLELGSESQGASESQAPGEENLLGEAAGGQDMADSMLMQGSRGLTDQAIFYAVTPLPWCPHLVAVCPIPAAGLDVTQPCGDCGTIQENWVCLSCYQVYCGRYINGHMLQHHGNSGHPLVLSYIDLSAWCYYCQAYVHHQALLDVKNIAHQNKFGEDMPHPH

HDAC8 = molecular target: T2, HDAC8 (Homo sapiens, UniProt Q9BY41); assay: HDAC8 inhibition, label-free mass spectrometry-based SAMDI assay; type: biochemical; details: vs 26e as printed
T2 sequence (Q9BY41 1-377): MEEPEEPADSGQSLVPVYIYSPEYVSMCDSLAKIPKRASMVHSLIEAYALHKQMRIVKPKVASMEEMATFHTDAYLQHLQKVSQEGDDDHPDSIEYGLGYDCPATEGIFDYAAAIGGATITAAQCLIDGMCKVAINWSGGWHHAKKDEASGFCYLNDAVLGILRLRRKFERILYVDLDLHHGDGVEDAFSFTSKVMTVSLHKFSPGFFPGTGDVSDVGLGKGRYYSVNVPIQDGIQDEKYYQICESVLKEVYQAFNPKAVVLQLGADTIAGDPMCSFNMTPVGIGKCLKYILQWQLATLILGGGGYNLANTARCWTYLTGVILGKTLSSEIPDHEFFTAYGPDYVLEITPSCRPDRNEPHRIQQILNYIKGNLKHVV

MCF-7 cells = assay: Cell viability; type: cell-based; details: MCF-7 cells
Vero cells = assay: Cell viability; type: cell-based, monkey; details: Primates, 72 h, read-out: Anti-proliferative activity IC50, Vero

Question: With `CC[C@H]1OC(=O)[C@@H](C)[C@H](O[C@H]2C[C@@](C)(OC)[C@@H](O)[C@H](C)O2)[C@H](C)[C@H](O[C@H]2O[C@@H](C)C[C@@H](N(C)Cc3ccc(-c4cn(CCCCCCC(=O)NO)nn4)cc3)[C@@H]2O)[C@@](C)(O)C[C@H](C)CN(C)[C@@H](C)[C@H](O)[C@@]1(C)O` [Compound 17f] as the compound, how does the IC50 (HDAC1/2) read?
Answer: Its IC50 is 13.9 nM.

Question: For `CC[C@H]1OC(=O)[C@H](C)C(=O)[C@H](C)[C@@H](O[C@@H]2O[C@H](C)C[C@H](N(C)Cc3cccc(-c4cn(CCCCCCC(=O)NO)nn4)c3)[C@H]2O)[C@@](C)(OC)C[C@@H](C)C2=NCCN3C(=O)O[C@@]1(C)[C@H]3[C@H]2C` [Compound 25b, (Tricyclic Ketolide-3′-(N-(3-triazolylbenzyl)))-N-hydroxyheptanamide], which “Fold more potent against HDAC6 than 26e” value (HDAC6) is on record?
Answer: Its value is “approximately 2 fold”.

Question: And the “Fold more potent against HDAC8 than 26e” value (HDAC8)?
Answer: The value was roughly 5 fold.

Question: And the “Antiproliferative activity against MCF-7, in words” value (MCF-7 cells)?
Answer: Its value is “potently inhibited”.

Question: Which IC50 (Vero cells) does the source give for `O=C(CCCCCCC(=O)Nc1ccccc1)NO` [SAHA, suberoylanilide hydroxamic acid, reference compound] here?
Answer: Its IC50 is 1030 ± 90 nM.
